Experimental data published in ChEMBL document CHEMBL5543156, “Selective Elimination of Senescent Cancer Cells by Galacto-Modified PROTACs” (J Med Chem, 2024).
The source made the active and inactive calls. The calls are words filed in the database; no cut-off is given here.

Key:
[1] = target: T1, NPM/ALK (Nucleophosmin/ALK tyrosine kinase receptor) (Homo sapiens) (UniProt Q9UM73+P06748); test: Induction of NPM-ALK degradation in human senescent KARPAS-299 cells at 1 uM incubated for 16 hrs by Western blot analysis; assay type: cell-based
KARPAS-299 [2] = test: Senolytic index, ratio of IC50 for antiproliferative activity against human normal (non-senescent) KARPAS-299 cells assessed as reduction in cell viability to IC50 for antiproliferative activity against human senescent KARPAS-299 cells assessed as reduction in cell viability; assay type: functional
KARPAS-299 [3] = test: Antiproliferative activity against human senescent KARPAS-299 cells assessed as reduction in cell viability incubated for 72 hrs by CCK-8 assay; assay type: functional, cell-based; conditions: KARPAS-299, 72 h
KARPAS-299 [4] = test: Antiproliferative activity against human normal (non-senescent) KARPAS-299 cells assessed as reduction in cell viability incubated for 72 hrs by CCK-8 assay; assay type: functional, cell-based; conditions: KARPAS-299, 72 h
A549 [5] = test: Antitumor activity against human A549 cells xenografted in SCID mouse assessed as tumor growth inhibition at 20 mg/kg, sc administered daily for 19 days; assay type: functional; conditions: A549, 456 h, time 19 day, read-out: TGI
A549 [6] = test: Induction of apoptosis in human senescent A549 cells assessed as viable cells at 1 uM incubated for 24 hrs by FITC/PI staining based flow cytometry analysis (reference value: 86.9%); assay type: functional; conditions: read-out: Activity
A549 [7] = test: Induction of apoptosis in human normal (non-senescent) A549 cells assessed as early apoptotic cells at 1 uM incubated for 24 hrs by FITC/PI staining based flow cytometry analysis (reference value: 3.14%); assay type: functional
A549 [8] = test: Induction of apoptosis in human senescent A549 cells assessed as necrotic cells at 1 uM incubated for 24 hrs by FITC/PI staining based flow cytometry analysis (reference value: 0.15%); assay type: functional
A549 [9] = test: Induction of apoptosis in human normal (non-senescent) A549 cells assessed as necrotic cells at 1 uM incubated for 24 hrs by FITC/PI staining based flow cytometry analysis (reference value: 0.29%); assay type: functional
A549 [10] = test: Antiproliferative activity against human normal (non-senescent) A549 cells assessed as reduction in cell viability incubated for 72 hrs by CCK-8 assay; assay type: functional, cell-based; conditions: A549, 72 h
[11] = target: T2, Bromodomain-containing protein 4 (Homo sapiens, UniProt O60885); test: Induction of BRD4 degradation in human normal (non-senescent) A549 cells at 50 to 100 nM by SA-beta-Gal staining assay; assay type: cell-based; conditions: dose 50-100 nM
[12] = Toxicity in SCID mouse xenografted with human A549 cells change in body weight at 20 mg/kg, sc administered daily for 19 days; assay type: organism-based; conditions: in vivo, 456 h, time 19 day
A549 [13] = test: Induction of apoptosis in human senescent A549 cells assessed as early apoptotic cells at 1 uM incubated for 24 hrs by FITC/PI staining based flow cytometry analysis (reference value: 0.68%); assay type: functional
A549 [14] = test: Induction of apoptosis in human normal (non-senescent) A549 cells assessed as late apoptotic cells at 1 uM incubated for 24 hrs by FITC/PI staining based flow cytometry analysis (reference value: 1.97%); assay type: functional
A549 [15] = test: Induction of apoptosis in human senescent A549 cells assessed as late apoptotic cells at 1 uM incubated for 24 hrs by FITC/PI staining based flow cytometry analysis (reference value: 12.2%); assay type: functional
[16] = target: T2, Bromodomain-containing protein 4; test: Induction of BRD4 degradation in human A549 cells at 50 nM incubated for 16 hrs in presence of MG-132 by Western blot analysis; assay type: cell-based
[17] = target: T2, Bromodomain-containing protein 4; test: Induction of BRD4 degradation in etoposide-induced human senescent A549 cells pretreated with etoposide for 3 days followed by compound administration and measured after 15 mins by SA-beta-Gal staining assay; assay type: cell-based
A549 [18] = test: Induction of apoptosis in human normal (non-senescent) A549 cells assessed as viable cells at 1 uM incubated for 24 hrs by FITC/PI staining based flow cytometry analysis (reference value: 94.6%); assay type: functional; conditions: read-out: Activity
A549 [19] = test: Senolytic index, ratio of IC50 for antiproliferative activity against human normal (non-senescent) A549 cells assessed as reduction in cell viability to IC50 for antiproliferative activity against human senescent A549 cells assessed as reduction in cell viability; assay type: functional
A549 [20] = test: Antiproliferative activity against human senescent A549 cells assessed as reduction in cell viability incubated for 72 hrs by CCK-8 assay; assay type: functional, cell-based; conditions: A549, 72 h
[21] = target: T2, Bromodomain-containing protein 4; test: Induction of BRD4 degradation in human HeLa cells by SA-beta-Gal staining assay; assay type: cell-based
A549 [22] = test: Antitumor activity against human A549 cells xenografted in SCID mouse assessed as reduction in BRD4 level in tumor at 20 mg/kg, sc administered daily for 19 days by IHC analysis; assay type: functional, organism-based; conditions: time 19.0 day
A549 [23] = test: Antitumor activity against human A549 cells xenografted in SCID mouse assessed as increase in cleaved caspase-3 level in tumor at 20 mg/kg, sc administered daily for 19 days in presence of etoposide by IHC analysis; assay type: functional, organism-based; conditions: time 19.0 day
[24] = target: T2, Bromodomain-containing protein 4; test: Induction of BRD4 degradation in etoposide-induced human senescent HeLa cells by SA-beta-Gal staining assay; assay type: cell-based
A549 [25] = test: Antitumor activity against human A549 cells xenografted in SCID mouse assessed as reduction in ki67 level in tumor at 20 mg/kg, sc administered daily for 19 days in presence of etoposide by IHC analysis; assay type: functional, organism-based; conditions: time 19.0 day
A549 [26] = test: Effect on BTBD8 level in etoposide-induced human senescent A549 cells at 50 nM incubated for 16 hrs by Proteomic analysis; assay type: functional, cell-based
[27] = Stability of the compound in fetal bovine serum incubated for 24 hrs by Real-tie ultrafast liquid chromatography analysis; assay type: ADME, cell-free, Bos taurus; conditions: cattle
A549 [28] = test: Effect on ARGAL level in etoposide-induced human senescent A549 cells at 50 nM incubated for 16 hrs by Proteomic analysis; assay type: functional, cell-based
A549 [29] = test: Antitumor activity against etoposide-induced human A549 cells xenografted in SCID mouse assessed as tumor growth inhibition at 20 mg/kg, sc administered daily for 19 days; assay type: functional, organism-based; conditions: time 19.0 day
A549 [30] = test: Downregulation of BRD4 expression in etoposide-induced human senescent A549 cells at 50 nM incubated for 16 hrs by Proteomic analysis; assay type: functional, cell-based
[31] = target: T2, Bromodomain-containing protein 4; test: Induction of BRD4 degradation in etoposide-induced human senescent A549 cells incubated for 16 hrs by Western blot analysis; assay type: cell-based
[32] = target: T2, Bromodomain-containing protein 4; test: Induction of BRD4 degradation in human U87 cells by SA-beta-Gal staining assay; assay type: cell-based
[33] = target: T2, Bromodomain-containing protein 4; test: Induction of BRD4 degradation in etoposide-induced human senescent U87 cells by SA-beta-Gal staining assay; assay type: cell-based
A549 [34] = test: Antitumor activity against human A549 cells xenografted in SCID mouse assessed as decrease in p21 level in tumor at 20 mg/kg, sc administered daily for 19 days in presence of etoposide by IHC analysis; assay type: functional, organism-based; conditions: time 19.0 day
[35] = Stability of the compound assessed as porcine liver esterase-mediated hydrolysis measured at 16 hrs by Real-time ultrafast liquid chromatography analysis; assay type: ADME, Sus scrofa; conditions: pig, isolated protein
[36] = target: T2, Bromodomain-containing protein 4; test: Induction of BRD4 degradation in etoposide-induced human senescent A549 cells at 100 nM pretreated with etoposide for 3 days followed by compound administration and measured after 15 mins by SA-beta-Gal staining assay; assay type: cell-based
[37] = target: T1, NPM/ALK (Nucleophosmin/ALK tyrosine kinase receptor) (Homo sapiens); test: Induction of NPM-ALK degradation in human normal (non-senescent) KARPAS-299 cells at 1 uM incubated for 16 hrs by Western blot analysis; assay type: cell-based

T1 sequence (P06748 whole entry partner): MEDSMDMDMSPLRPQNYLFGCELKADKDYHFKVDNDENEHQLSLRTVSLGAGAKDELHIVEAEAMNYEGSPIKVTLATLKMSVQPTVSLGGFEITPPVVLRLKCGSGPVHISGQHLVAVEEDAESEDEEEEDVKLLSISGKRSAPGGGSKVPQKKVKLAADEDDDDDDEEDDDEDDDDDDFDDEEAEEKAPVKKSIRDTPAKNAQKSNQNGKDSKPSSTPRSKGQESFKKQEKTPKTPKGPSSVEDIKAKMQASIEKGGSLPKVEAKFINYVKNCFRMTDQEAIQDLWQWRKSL
T1 sequence (Q9UM73 19-1620 limits assumed): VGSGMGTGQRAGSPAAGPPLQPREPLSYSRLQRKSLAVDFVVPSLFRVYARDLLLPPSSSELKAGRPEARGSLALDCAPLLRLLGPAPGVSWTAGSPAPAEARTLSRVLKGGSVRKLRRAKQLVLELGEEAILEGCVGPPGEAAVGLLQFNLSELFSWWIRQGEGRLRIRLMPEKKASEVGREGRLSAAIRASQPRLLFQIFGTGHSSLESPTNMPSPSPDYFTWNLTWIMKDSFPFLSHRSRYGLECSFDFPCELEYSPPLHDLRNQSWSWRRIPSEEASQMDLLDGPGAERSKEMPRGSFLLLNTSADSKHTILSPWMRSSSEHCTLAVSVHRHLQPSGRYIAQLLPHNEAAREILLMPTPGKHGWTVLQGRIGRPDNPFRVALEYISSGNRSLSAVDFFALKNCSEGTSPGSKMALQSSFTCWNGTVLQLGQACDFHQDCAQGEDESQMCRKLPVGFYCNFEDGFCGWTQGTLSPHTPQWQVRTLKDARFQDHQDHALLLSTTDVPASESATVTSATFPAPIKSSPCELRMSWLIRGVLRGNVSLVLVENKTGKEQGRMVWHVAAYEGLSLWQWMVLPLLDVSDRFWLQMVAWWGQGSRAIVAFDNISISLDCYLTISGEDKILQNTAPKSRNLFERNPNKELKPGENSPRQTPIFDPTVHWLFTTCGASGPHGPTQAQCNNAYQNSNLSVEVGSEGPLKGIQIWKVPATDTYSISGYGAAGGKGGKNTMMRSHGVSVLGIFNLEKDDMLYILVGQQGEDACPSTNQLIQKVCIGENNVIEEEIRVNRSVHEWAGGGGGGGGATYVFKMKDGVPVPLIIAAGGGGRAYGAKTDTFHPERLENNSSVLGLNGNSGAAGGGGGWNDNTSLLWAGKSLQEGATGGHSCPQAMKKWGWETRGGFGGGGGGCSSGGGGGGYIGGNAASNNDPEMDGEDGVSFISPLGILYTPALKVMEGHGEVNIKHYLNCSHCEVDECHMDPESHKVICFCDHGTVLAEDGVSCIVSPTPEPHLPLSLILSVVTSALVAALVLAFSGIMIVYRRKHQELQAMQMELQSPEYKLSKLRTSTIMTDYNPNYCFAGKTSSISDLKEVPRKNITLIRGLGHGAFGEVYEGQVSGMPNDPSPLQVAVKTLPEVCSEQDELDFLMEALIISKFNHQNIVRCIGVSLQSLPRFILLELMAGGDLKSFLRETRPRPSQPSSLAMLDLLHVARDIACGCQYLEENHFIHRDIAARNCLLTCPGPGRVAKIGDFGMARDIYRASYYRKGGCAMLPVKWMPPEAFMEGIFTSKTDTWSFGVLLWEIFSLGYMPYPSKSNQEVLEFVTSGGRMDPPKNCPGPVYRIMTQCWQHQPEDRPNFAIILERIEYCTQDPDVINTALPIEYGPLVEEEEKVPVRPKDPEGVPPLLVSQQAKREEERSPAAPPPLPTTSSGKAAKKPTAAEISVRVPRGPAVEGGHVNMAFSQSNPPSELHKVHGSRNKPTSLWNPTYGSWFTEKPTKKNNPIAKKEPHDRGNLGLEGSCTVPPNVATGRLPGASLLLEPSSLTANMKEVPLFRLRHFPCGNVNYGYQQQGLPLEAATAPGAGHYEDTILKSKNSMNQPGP

Activity [1] | IC50 (KARPAS-299 [3]) | Activity [16] | Activity [17] | IC50 (A549 [20]) | SMILES | Ratio IC50 (KARPAS-299 [2]) | IC50 (KARPAS-299 [4]) | inhibition in vivo at 20 mg/kg (A549 [5]) | viability at 1 µM (A549 [6]) | Activity (A549 [7]) | Activity (A549 [8]) | Activity (A549 [9]) | IC50 (A549 [10]) | Activity [12] | Activity (A549 [13]) | Activity (A549 [14]) | Activity (A549 [15]) | viability at 1 µM (A549 [18]) | Ratio IC50 (A549 [19]) | further results
Active | 232 nM |  |  |  | Cc1cc(Nc2ncc(Cl)c(Nc3ccccc3S(=O)(=O)C(C)C)n2)c(OC(C)C)cc1C1CCN(C(=O)CCCC(=O)N[C@H](C(=O)N2C[C@H](O)C[C@H]2C(=O)N[C@@H](C)c2ccc(-c3scnc3C)cc2)C(C)(C)C)CC1 | 1.59 | 369 nM |  |  |  |  |  |  |  |  |  |  |  |  | 
 |  | Active | Active | 603 nM | Cc1ncsc1-c1ccc([C@H](C)NC(=O)[C@@H]2C[C@@H](O)CN2C(=O)[C@@H](NC(=O)COCCCOCCNC(=O)C[C@@H]2N=C(c3ccc(Cl)cc3)c3c(sc(C)c3C)-n3c(C)nnc32)C(C)(C)C)cc1 |  |  | 74% | 68.7% | 20.1% | 0.09% | 0.98% | 640 nM | Non-Toxic | 17% | 6.76% | 14.2% | 72.2% | 0.59 | Activity [11]: Active
 |  | Active | Active | 354 nM | CC(=O)OC[C@H]1O[C@@H](Oc2ccc(COC(=O)O[C@@H]3C[C@@H](C(=O)N[C@@H](C)c4ccc(-c5scnc5C)cc4)N(C(=O)[C@@H](NC(=O)COCCCOCCNC(=O)C[C@@H]4N=C(c5ccc(Cl)cc5)c5c(sc(C)c5C)-n5c(C)nnc54)C(C)(C)C)C3)cc2)[C@H](OC(C)=O)[C@@H](OC(C)=O)[C@H]1OC(C)=O |  |  | 80% | 68.3% | 8.07% | 0.1% | 0.68% | 3290 nM | Non-Toxic | 16.7% | 4.72% | 14.8% | 86.5% | 5.17 | Activity [21]: Active; Activity (A549 [22]): Active; Activity (A549 [23]): Active; Activity [24]: Active; Activity (A549 [25]): Active; Activity (A549 [26]): Active; Stability [27]: Stable; Activity (A549 [28]): Active; TGI (A549 [29]): Active; Activity (A549 [30]): Active; DC50 [31]: 18.3 nM; Activity [32]: Active; Activity [33]: Active; Activity (A549 [34]): Active; Stability [35]: Stable; Activity [36]: Active
Active | 455 nM |  |  |  | CC(=O)OC[C@H]1O[C@@H](Oc2ccc(COC(=O)O[C@@H]3C[C@@H](C(=O)N[C@@H](C)c4ccc(-c5scnc5C)cc4)N(C(=O)[C@@H](NC(=O)CCCC(=O)N4CCC(c5cc(OC(C)C)c(Nc6ncc(Cl)c(Nc7ccccc7S(=O)(=O)C(C)C)n6)cc5C)CC4)C(C)(C)C)C3)cc2)[C@H](OC(C)=O)[C@@H](OC(C)=O)[C@H]1OC(C)=O | 4.75 | 2160 nM |  |  |  |  |  |  |  |  |  |  |  |  | Activity [37]: inactive
